Test results as given in patent US7094796B2, “Coupling product between tryptamine and an alpha-amino acid, process for its preparation as well as its application in the neurocosmetic field” (Exsymol S.A.M., priority 2002, dated 2006).

Experiments:
[1] = test system: PC 12 cells; assay: Test 1: cytoprotecting effect on PC 12 cells submitted to a cytotoxic UV-B stress (LDH activity in culture medium); type: cell-based, murine; settings: UV-B 285 nm, 500 mJ/cm^2, average of six measures
From the text: (§1) The cell model chosen by the applicant in all its in vitro experimentations was a pheochromocytomal cell line with murine origin, called “PC 12” and commonly accepted for neurobiological and neurochemical studies on nervous cells (Greene L. A. and al., Proc. Natl. Acad. Sci. USA (1976), vol.73, pp.2424–2428), in particular on peripheral neurones which innervate skin (Keilbaugh S. A., Biochem. Pharm. (1997), vol.53, pp.1485–1492).
(§2) The PC 12 line was used after differentiation according to a method described in the literature (Greene L. A. et al. in Culturing Nerve Cells (1991), MIT Press, Cambridge, Mass., pp.207–225).
Test 1: cytoprotecting effect of the alpha-L-glutamyltryptamine, L-methionyltryptamine and L-tryptophantryptamine on PC 12 cells submitted to a UV-B stress. Comparison with a reference antioxidant. A cytotoxic UV-B stress is applied on the nervous cell model (285 nm±5; 500 mJ/cm^2), in the absence then in the presence of active ingredient, successively the alpha-L-glutamyltryptamine (Glu-Tryp), L-methionyltryptamine (Met-Tryp) and L-tryptophantryptamine (Trp-Tryp).
The cell death is then evaluated by the measure of lactico-dehydrogenase activity (LDH) in the culture medium. This activity is proportional to the cell lysis which follows the cell death.
The results are expressed in % of protection and are given by the ratio of LDH activity according to the following equation: […]
The results are compared to the ones obtained with a reference antioxidant which is vitamin E (vit.E).
Validity of the test is checked by the measure of LDH activity in the culture medium of non stressed cells (negative check). Values listed in the tables hereafter are average values obtained from six measures.

[2] = test system: PC 12 cells; assay: Test 2: slowdown of the neurodegeneration process of PC 12 submitted to a deprivation of serum (LDH release); type: cell-based, murine; settings: serum deprivation of nine days, average of six measures
From the text: as §1, §2
Test 2: anti-aging effect of the alpha-L-glutamyltryptamine, L-methionyltryptamine and L-tryptophantryptamine with the slowdown of the neurodegeneration process of PC 12 submitted to a deprivation of serum.
A deprivation of serum is applied to PC 12 cells in order to imitate the aging effects. The neurodegeneration process is followed, in the absence then in the presence of active ingredient, successively the alpha-L-glutamyltryptamine (Glu-Tryp), L-methionyltryptamine (Met-Tryp) and L-tryptophantryptamine (Trp-Tryp), by a kinetic measure of the release in the culture medium of lactico-dehydrogenase enzyme (LDH).
The results are expressed in relative survival rate given by the LDH activity ratio according to the following equation: […]
The values listed in the tables hereafter are average values obtained from six measures after a serum deprivation of nine days.

[3] = test system: PC 12 cells; assay: Test 3: anti-inflammatory effect on PC 12 cells submitted to a UV-B pro-inflammatory stress (IL-6 production); type: cell-based, murine; settings: UV-B 285 nm, 150 mJ/cm^2, non treated irradiated control 400, non irradiated control 0
From the text: as §1, §2
Test 3: anti-inflammatory effect of the alpha-L-glutamyltryptamine, L-methionyltryptamine and L-tryptophantryptamine on PC 12 cells submitted to a pro-inflammatory stress. Comparison with two controls (PC 12): the first one is non stressed, the second one is stressed but non treated
A UV-B pro-inflammatory stress is applied on PC 12 cells (285 nm±5; 150 mJ/cm^2), in the absence then in the presence of active ingredient, successively the alpha-L-glutamyltryptamine (Glu-Tryp), L-methionyltryptamine (Met-Tryp) and L-tryptophantryptamine (Trp-Tryp).
The neurogenic inflammatory response is evaluated by the measure of the rate of pro-inflammatory interleukine-6 (IL-6) which are produced by the PC 12 cells.

[4] = test system: immune monocyte cells, the THP-1 line; assay: Test 4: stimulation of the neuro immuno-cutaneous system (IL-1β produced by THP-1 monocytes given supernatants of treated PC 12 cells); type: cell-based; settings: supernatant added to THP-1, non treated supernatant control 40
Method: Test 4: stimulation of the neuro immuno-cutaneous system with the alpha-L-glutamyltryptamine, L-methionyltryptamine or L-tryptophantryptamine.
PC 12 cells are differentiated according to a special protocol to avoid artefacts. After a brief deprivation of growth and differentiation factors, PC 12 are incubated in different concentrations of pseudodipeptides, successively the alpha-L-glutamyltryptamine (Glu-Tryp), L-methionyltryptamine (Met-Tryp) and L-tryptophantryptamine (Trp-Tryp).
After a five days-incubation, the cellular supernatants containing neuromediators and miscellaneous secretions are sampled then introduced in the culture of immune monocyte cells, the THP-1 line.
The effect on the neuro immuno-cutaneous system is observed by measuring the rate of IL-1β interleukines produced by the monocyte cells in response to the addition of supernatants coming from the culture of PC 12 cells.
The results are compared to two controls: the first one with immune cells without supernatant, the second one containing immune cells with supernatant but non treated.

[5] = 0.05 mM on PC 12, five days-incubation
[6] = 0.1 mM on PC 12, five days-incubation

Compound	% of protection ([1]; 0.05 mM) [%]	% of protection ([1]; 0.1 mM) [%]	% of protection ([1]; 0.45 mM) [%]	% of protection ([1]; 0.85 mM) [%]	% of protection ([1]; 1.80 mM) [%]	improvement of the survival time (%) ([2]; 0.1 mM)	improvement of the survival time (%) ([2]; 0.45 mM)	improvement of the survival time (%) ([2]; 0.85 mM)	produced IL-6 rate ([3]; 0.1 mM) [pg/mL]	produced IL-6 rate ([3]; 0.45 mM) [pg/mL]	produced IL-6 rate ([3]; 0.85 mM) [pg/mL]	produced IL-1β rate [4, 5] [pg/mL]	produced IL-1β rate [4, 6] [pg/mL]	produced IL-1β rate ([4]; 0.45 mM on PC 12, five days-incubation) [pg/mL]	% of protection ([1]; 0.48 mM) [%]	% of protection ([1]; 1.91 mM) [%]	improvement of the survival time (%) ([2]; 0.48 mM)	produced IL-6 rate ([3]; 0.48 mM) [pg/mL]	produced IL-1β rate ([4]; 0.48 mM on PC 12, five days-incubation) [pg/mL]	% of protection ([1]; 2 mM) [%]
N[C@@H](Cc1c[nH]c2ccccc12)C(=O)NCCc1c[nH]c2ccccc12 [Trp-Tryp, L-tryptophantryptamine]	22	35	45	58	66	+17%	+20%	+30%	305	210	100	44	60	92	–	–	–	–	–	–
CSCC[C@H](N)C(=O)NCCc1c[nH]c2ccccc12 [Met-Tryp, L-methionyltryptamine]	20	32	–	53	–	+12%	–	+28%	290	–	85	42	55	–	42	65	+15%	210	85	–
vitamin E [Vit. E, reference compound]	–	–	–	–	–	–	–	–	–	–	–	–	–	–	–	–	–	–	–	34
